In data set [1] the test system is K562 cells. Set-up: method as in PMID 26789553. The following applies: against K562 cells; cited from earlier work.
On the set-up of data set [2]: method as in PMID 26789553. The following applies: 50 mg/kg, P.O.; cited from earlier work.
Data set [3] relates to K562 cells. The data set is described as follows: In vitro cell toxicity assay (CCK8). It counts as cell-based. The following applies: Homo sapiens, K562, 72 h. On the procedure: The K562 cell line used in this work was ordered from the American Type Culture Collection (ATCC, Manassas, VA, USA). The K562 cells were cultured in RPMI 1640 with 10% fetal bovine serum (FBS) (VivaCell, Shanghai, China) and 1% penicillin/streptomycin in a humidified incubator at 37 °C with 5% CO2. Firstly, K562 cells were seeded into 96-well plates with 100 μL of 1640 medium containing 3000 cells per well, and were incubated at 37 °C under 5% CO2. Subsequently, the cells in each well were treated with a series of concentrations of free 053 in DMSO, 053-F127 NCs, and 053-PPP NC micelles, respectively. Cell viability was determined using the Cell Counting Kit-8 (CCK8) (Best Bio, Shanghai, China) based on the manufacturer’s instructions. Subsequently, 10 μL of CCK8 solution was added to each well, and the absorbance of each well at a wavelength of 450 nm was measured using a microplate reader (iMARK, Bio-Rad, Hercules, CA, USA) after further incubation for 1 h at 37 °C. The absorbance was normalized and plotted as a function of drug concentration. The GI50 values were calculated using GraphPad Prism 8.0 (San Diego, CA, USA).

On the set-up of data set [4]: method as in PMID 26789553. Conditions: cited from earlier work.
The test system of data set [5] is K562 xenograft. The data set is described as follows: In vivo anticancer efficacy in K562 xenograft mouse model. More on the design: species or system Bal B/c nude mice. Conditions: 40 mg/kg QD, PO, n = 5. On the procedure: Female Bal B/c nude mice were used to establish K562 xenograft mouse models according to the protocol described above. When the tumors reached 150–200 mm^3, the mice were randomly divided into seven groups (n = 5) for the evaluation of antitumor efficacy in vivo at 40 mg/kg: Vehicle, free 053 QD (Once a day, PO), 053-F127 NC QD (IV), 053-F127 NC Q2D (Once every other day, IV), 053-PPP NC QD (IV), 053-PPP NC Q2D (IV), and 053-PPP NC Q4D (once every 4 days, IV). During the treatment, body weight and tumor growth were measured daily. Tumor volumes (V) were calculated as follows (Equation (3)):V (mm^3) = [(W^2 × L)/2],(3) where width (W) and length (L) are defined as the lower and higher of two measurements, respectively. When the tumors of the vehicle group reached the limit of the animal ethical regulations, the test was stopped. All the mice were euthanized, and major tissues/organs were harvested for immunohistochemical (IHC) analysis, including HE, Ki-67, and TUNEL staining.

Data set [6] can be described thus: In vivo pharmacokinetics after tail vein injection. Conditions: male, Sprague-Dawley, rat, plasma, rats, IV 1 mg/kg, n = 3. On the procedure: The in vivo profiling of free 053, 053-F127 NCs, and 053-PPP NC micelles were evaluated and compared using PK tests in male Sprague Dawley rats with individual weights of ~200 g (from the Laboratory Animal Center of Anhui Medical University, Hefei, China), approved by the Animal Ethics Committee of Hefei Institutes of Physical Science, Chinese Academy of Sciences, Hefei, China (approval code: DW-2019-20). The rats were housed in an air-conditioned room at 23 ± 2 °C and humidity of ~50%. After acclimatizing the facilities for 1 week, the rats were randomly divided into three groups (three per group): free 053, 053-F127 NC, and 053-PPP NC micelle. The rats were fasted for 12 h prior to drug administration. Free 053 (dissolved in 10% v/v DMSO in glucose 5%), 053-F127 NC, and 053-PPP NC micelle suspensions were administrated by tail vein injection at a dose of 1 mg/kg. Blood samples were collected in heparinized tubes at 2, 5, 15, 30 min and 1, 2, 4, 6, 9, 12, and 24 h (for all three groups). For the 053-PPP NC micelle group, blood was sampled at another three time points of 72, 96, and 120 h. The collected fresh blood samples were immediately processed in accordance with the following protocol: (1) collection of 100 μL of plasma by centrifuging the blood samples for 3 min at 6000 rpm and 4 °C, followed by storage at –80 °C for further analysis; (2) 20 μL of 200 ng/mL of caffeine (as an internal standard solution) was added to 100 μL of each plasma sample; (3) 400 μL of methanol was applied, vortexed for 5 min, and centrifuged at 14,000 rpm for 10 min; (4) the collected supernatants were quantified via LC-MS/MS analysis by loading 5 μL of supernatant. The collected data were analyzed by the non-compartment model using WinNonlin 8.1 software (Pharsight Corporation, Mountain View, CA, USA) to elucidate the PK parameters.

Where two headings read alike, the source gives them in different places.

For orientation: GI50 means the concentration at which growth is held to half of that of the control. By AUC(0-inf) is commonly meant total exposure, with the tail of the curve extrapolated. A lower AUC(0-inf) goes with less exposure. A word on the AUC(0-t): it is the area under the concentration-time curve up to a stated or last time point. High values mean more exposure, low ones less exposure. Broadly, the Cmax is the highest concentration seen after dosing. Usually Tmax stands for the time from dosing to the highest level. One may read the clearance as the rate of elimination divided by the concentration. High values mean efficient removal, low ones inefficient removal. In general, half-life refers to how long it takes for the measured level to halve. As to `CNc1ncncc1C(=O)Nc1cc(NC(=O)c2cccc(C(F)(F)F)c2)ccc1C` [Free 053, N-(2-methyl-5-(3-(trifluoromethyl)benzamido)phenyl)-4-(methylamino)pyrimidine-5-carboxamide], in data set [1], the GI50 is approximately 14 nM. Besides, the TGI in data set [2] is recorded as 48.3%. This molecule registered a GI50 in data set [3] of 5.95 ± 1.95 nM. Moreover, the oral bioavailability in data set [4] is recorded as ~ 24%. Besides, in data set [5], the “tumor inhibition efficacy compared with the vehicle group” value is “did not show a significant difference”. In data set [6], this molecule gave a total exposure AUC(0-inf) of 0.509 ± 0.132 µg·h/mL, an AUC(0-t) of 0.499 ± 0.132 µg·h/mL, a C0 of 0.555 ± 0.142 µg/mL and a Cmax of 0.364 ± 0.042 µg/mL. Moreover, in data set [6], the Tmax is 1.8 min, the clearance was 2.06 L/h/kg and the half-life was 2.02 ± 0.42 h. Also, the MRT last in data set [6] (read-out: MRT0–t) was 2.54 ± 0.55 h. In addition, the MRT inf in data set [6] (read-out: MRT0–∞) was determined as 2.78 ± 0.57 h. Further, the Vd in data set [6] (read-out: Vz) turned out to be 5.87 ± 1.33 L/kg.

Source of the values: article PMC9415161, “PEG-Bottlebrush Stabilizer-Based Worm-like Nanocrystal Micelles with Long-Circulating and Controlled Release for Delivery of a BCR-ABL Inhibitor against Chronic Myeloid Leukemia (CML)” (Pharmaceutics, 2022).
